Columns and labels:
[1] = molecular target: T1, Recombinant STAT3 protein (STAT3(G127-I722)) (Homo sapiens, UniProt P40763); assay: STAT3 Fluorescence Polarization (FP) Assay; type: binding; conditions: STAT3(G127-I722) 25 nM, probe 5-FAM-GpYLPQTV-NH2 2 nM, 45-minute incubation
T1 construct: Recombinant STAT3 protein (STAT3(G127-I722))
Summary of the method: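 STAT3(G127-I722), 25 nM, was mixed with 2 nM 5-FAM-GpYLPQTV-NH2 probe in HEPES pH 7.4 buffer with 1% DMSO and serially diluted compound. FP (mP) was read after 45 min at room temperature. IC50 came from nonlinear regression.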

[2] = molecular target: T2, Recombinant STAT6 protein (STAT6(W123-T658)) (Homo sapiens, UniProt P42226); assay: STAT6 Fluorescence Polarization (FP) Assay; type: binding; conditions: STAT6(W123-T658) 250 nM, probe 5-FAM-ApYKPFQDLI-NH2 2 nM, 45-minute incubation
T2 construct: Recombinant STAT6 protein (STAT6(W123-T658))
T2 sequence (P42226 123-658): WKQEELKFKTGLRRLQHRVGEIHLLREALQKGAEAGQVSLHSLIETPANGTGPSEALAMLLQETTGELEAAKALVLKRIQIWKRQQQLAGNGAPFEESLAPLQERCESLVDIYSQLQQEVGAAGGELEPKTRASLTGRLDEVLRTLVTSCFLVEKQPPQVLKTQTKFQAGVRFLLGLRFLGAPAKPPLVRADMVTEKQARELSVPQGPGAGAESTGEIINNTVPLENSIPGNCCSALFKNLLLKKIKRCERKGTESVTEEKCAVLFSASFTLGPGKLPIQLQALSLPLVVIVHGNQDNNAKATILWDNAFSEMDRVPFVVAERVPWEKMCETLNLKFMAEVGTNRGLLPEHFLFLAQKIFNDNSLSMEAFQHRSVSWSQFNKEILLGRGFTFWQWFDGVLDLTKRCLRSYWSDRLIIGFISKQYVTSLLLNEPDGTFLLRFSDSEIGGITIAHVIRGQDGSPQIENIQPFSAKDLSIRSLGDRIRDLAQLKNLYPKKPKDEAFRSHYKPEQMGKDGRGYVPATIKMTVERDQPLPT
Summary of the method: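 Displacement of a fluorescent phosphotyrosine peptide (5-FAM-ApYKPFQDLI-NH2, 2 nM) from STAT6(W123-T658) (250 nM), 1% DMSO, pH 7.4 HEPES buffer. After 45 min at room temperature, polarization (mP) was plotted versus log compound concentration and fitted by nonlinear regression to give IC50.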

T1 sequence (P40763 127-722): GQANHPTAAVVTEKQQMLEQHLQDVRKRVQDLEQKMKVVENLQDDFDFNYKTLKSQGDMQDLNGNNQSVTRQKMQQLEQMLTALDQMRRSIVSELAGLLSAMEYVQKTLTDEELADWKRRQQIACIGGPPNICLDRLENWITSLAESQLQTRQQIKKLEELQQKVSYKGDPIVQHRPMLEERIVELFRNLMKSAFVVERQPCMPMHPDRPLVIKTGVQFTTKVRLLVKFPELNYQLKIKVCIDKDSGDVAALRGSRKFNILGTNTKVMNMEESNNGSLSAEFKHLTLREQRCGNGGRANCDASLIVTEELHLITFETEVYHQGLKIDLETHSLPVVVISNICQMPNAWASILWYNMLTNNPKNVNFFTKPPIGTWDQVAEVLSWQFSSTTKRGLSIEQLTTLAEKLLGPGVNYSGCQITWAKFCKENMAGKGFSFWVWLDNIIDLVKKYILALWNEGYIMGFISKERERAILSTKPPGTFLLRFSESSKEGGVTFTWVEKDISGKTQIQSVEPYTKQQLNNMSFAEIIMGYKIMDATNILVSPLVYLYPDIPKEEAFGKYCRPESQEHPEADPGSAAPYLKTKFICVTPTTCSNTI

Structure (SMILES) | IC50 [1] | IC50 [2]
CC(=O)N1CC[C@H]2CC[C@@H](C(=O)N(C)c3ccccc3)N2C(=O)[C@@H](NC(=O)c2cc3cc(C(C)P(=O)(O)O)ccc3s2)C1 (stereo partly drawn) [Compound 20, (1-(2-(((5S,8S,10aR)-3-acetyl-8-(methyl(phenyl)carbamoyl)-6-oxodecahydropyrrolo[1,2-a][1,5]diazocin-5-yl)carbamoyl)benzo[b]thiophen-5-yl)ethyl)phosphonic acid] | > 10 µM | > 30 µM
CC(=O)N1CC[C@H]2CC[C@@H](C(=O)N(C)c3ccccc3)N2C(=O)[C@@H](NC(=O)c2cc3cc(C(C)(C)P(=O)(O)O)ccc3s2)C1 [Compound 21, (2-(2-(((5S,8S,10aR)-3-acetyl-8-(methyl(phenyl)carbamoyl)-6-oxodecahydropyrrolo[1,2-a][1,5]diazocin-5-yl)carbamoyl)benzo[b]thiophen-5-yl)propan-2-yl)phospnoic aicd] | > 10 µM | > 30 µM
CC(=O)N1CC[C@H]2CC[C@@H](C(=O)N(C)c3ccccc3)N2C(=O)[C@@H](NC(=O)c2cc3cc(C(F)P(=O)(O)O)ccc3s2)C1 (stereo partly drawn) [Compound 22, ((2-(((5S,8S,10aR)-3-acetyl-8-(methyl(phenyl)carbamoyl)-6-oxodecahydropyrrolo[1,2-a][1,5]diazocin-5-yl)carbamoyl)benzo[b]thiophen-5-yl)fluoromethyl)phosphonic acid] | > 10 µM | 0.3 to 3 µM
CCC(=O)N(C)[C@@H]1CCN(C(=O)[C@@H]2CC[C@@H]3CCN(C(C)=O)C[C@H](NC(=O)c4cc5cc(C(F)(F)P(=O)(O)O)ccc5[nH]4)C(=O)N32)C1 [Compound 23, ((2-(((5S,8S,10aR)-3-acetyl-8-((R)-3-(N-methylpropionamido)pyrrolidine-1-carbonyl)-6-oxodecahydropyrrolo[1,2-a][1,5]diazocin-5-yl)carbamoyl)-1H-indol-5-yl)difluoromethyl)phosphonic acid] | 1 to 10 µM | 0.3 to 3 µM
CC(=O)N1CC(NC(=O)[C@@H]2CC[C@@H]3CCN(C(C)=O)C[C@H](NC(=O)c4cc5cc(C(F)(F)P(=O)(O)O)ccc5[nH]4)C(=O)N32)C1 [Compound 24, ((2-(((5S,8S,10aR)-3-acetyl-8-((1-acetylazetidin-3-yl)carbamoyl)-6-oxodecahydropyrrolo[1,2-a][1,5]diazocin-5-yl)carbamoyl)-1H-indol-5-yl)difluoromethyl)phosphonic acid] | 0.1 to 1 µM | 0.3 to 3 µM
CCC(=O)NCCCN(C)C(=O)[C@@H]1CC[C@@H]2CCN(C(C)=O)C[C@H](NC(=O)/C=C(\C)c3ccc(C(F)(F)P(=O)(O)O)cc3)C(=O)N21 [Compound 25, ((4-((E)-4-(((5S,8S,10aR)-3-acetyl-8-(methyl(3-propionamidopropyl)carbamoyl)-6-oxodecahydropyrrolo[1,2-a][1,5]diazocin-5-yl)amino)-4-oxobut-2-en-2-yl)phenyl)difluoromethyl)phosphonic acid] | > 10 µM | 3 to 30 µM
CCC(=O)NCCCN(C)C(=O)[C@@H]1CC[C@@H]2CCN(C(C)=O)C[C@H](NC(=O)/C=C/c3ccc(C(F)(F)P(=O)(O)O)cc3)C(=O)N21 [Compound 26, ((4-((E)-3-(((5S,8S,10aR)-3-acetyl-8-(methyl(3-propionamidopropyl)carbamoyl)-6-oxodecahydropyrrolo[1,2-a][1,5]diazocin-5-yl)amino)-3-oxoprop-1-en-1-yl)phenyl)difluoromethyl)phosphonic acid] | > 10 µM | > 30 µM
CCC(=O)NCCCN(C)C(=O)[C@@H]1CC[C@@H]2CCN(C(C)=O)C[C@H](NC(=O)c3cc4cc(C(=O)P(=O)(O)O)ccc4[nH]3)C(=O)N21 [Compound 27, (2-(((5S,8S,10aR)-3-acetyl-8-(methyl(3-propionamidopropyl)carbamoyl)-6-oxodecahydropyrrolo[1,2-a][1,5]diazocin-5-yl)carbamoyl)-1H-indole-5-carbonyl)phosphonic acid] | 1 to 10 µM | 3 to 30 µM
CCC(=O)NCCCN(C)C(=O)[C@@H]1CC[C@@H]2CCN(C(C)=O)C[C@H](NC(=O)c3cc4cc(C(F)(F)P(=O)(O)O)ccc4[nH]3)C(=O)N21 [Compound 28, ((2-(((5S,8S,10aR)-3-acetyl-8-(methyl(3-propionamidopropyl)carbamoyl)-6-oxodecahydropyrrolo[1,2-a][1,5]diazocin-5-yl)carbamoyl)-1H-indol-5-yl)difluoromethyl)phosphonic acid] | 1 to 10 µM | 0.3 to 3 µM
CC(=O)N1CC[C@H]2CC[C@@H](C(=O)N(C)C)N2C(=O)[C@@H](NC(=O)c2cc3cc(C(F)(F)P(=O)(O)O)ccc3[nH]2)C1 [Compound 29, ((2-(((5S,8S,10aR)-3-acetyl-8-(dimethylcarbamoyl)-6-oxodecahydropyrrolo[1,2-a][1,5]diazocin-5-yl)carbamoyl)-1H-indole-5-yl)difluoromethyl)phosphonic acid] | 1 to 10 µM | 0.3 to 3 µM
CC(=O)N1CC[C@H]2CC[C@@H](C(=O)N(C)c3ccccc3)N2C(=O)[C@@H](NC(=O)c2cc3cc(C(F)(F)P(=O)(O)O)ccc3[nH]2)C1 [Compound 30] | 1 to 10 µM | 0.3 to 3 µM
CC(=O)N1CC[C@H]2CC[C@@H](C(=O)N[C@H]3CCC[C@H]3N)N2C(=O)[C@@H](NC(=O)c2cc3cc(C(F)(F)P(=O)(O)O)ccc3[nH]2)C1 [Compound 31, ((2-(((5S,8S,10aR)-3-acetyl-8-(((1S,2R)-2-aminocyclopentyl)carbamoyl)-6-oxodecahydropyrrolo[1,2-a][1,5]diazocin-5-yl)carbamoyl)-1H-indol-5-yl)difluoromethyl)phosphonic acid] | 1 to 10 µM | 0.3 to 3 µM
CC(=O)N[C@H]1CCC[C@@H]1NC(=O)[C@@H]1CC[C@@H]2CCN(C(C)=O)C[C@H](NC(=O)c3cc4cc(C(F)(F)P(=O)(O)O)ccc4[nH]3)C(=O)N21 [Compound 32, ((2-(((5S,8S,10aR)-8-(((1S,2S)-2-acetamidocyclopentyl)carbamoyl)-3-acetyl-6-oxodecahydropyrrolo[1,2-a][1,5]diazocin-5-yl)carbamoyl)-1H-indol-5-yl)difluoromethyl)phosphonic acid] | 1 to 10 µM | 3 to 30 µM
CCN(C)CCCN(C)C(=O)[C@@H]1CC[C@@H]2CCN(C(C)=O)C[C@H](NC(=O)c3cc4cc(C(F)(F)P(=O)(O)O)ccc4[nH]3)C(=O)N21 [Compound 33, ((2-(((5S,8S,10aR)-3-acetyl-8-((3-(ethyl(methyl)amino)propyl)(methyl)carbamoyl)-6-oxodecahydropyrrolo[1,2-a][1,5]diazocin-5-yl)carbamoyl)-1H-indol-5-yl)difluoromethyl)phosphonic acid] | 1 to 10 µM | 3 to 30 µM
CCC(=O)N1CC[C@@H](NC(=O)[C@@H]2CC[C@@H]3CCN(C(C)=O)C[C@H](NC(=O)c4cc5cc(C(F)(F)P(=O)(O)O)ccc5[nH]4)C(=O)N32)C1 [Compound 34, ((2-(((5S,8S,10aR)-3-aceytl-6-oxo-8-(((R)-1-propionylpyrrolidin-3-yl)carbamoyl)decahydropyrrolo[1,2-a][1,5]diazocin-5-yl)carbamoyl)-1H-indol-5-yl)difluoromethyl)phosphonic acid] | 0.1 to 1 µM | 0.3 to 3 µM
